# According to PMC4684212, “Toxoplasma gondii Chitinase Induces Macrophage Activation” (PLoS ONE, 2015):
# System: T1, Tg_chitinase
# T1 construct: gene TGME49_286465
# Assay: colorimetric p-nitrophenol release at […] nm, non-linear regression
# Format: biochemical, Toxoplasma gondii
# Conditions: substrate 0.01 to 0.1 mM; general assay 0.1 M sodium acetate buffer, 37°C; pH 4.0 and 50°C are the optima listed beside the Km
compound,measurement,value
CC(=O)N[C@H]1[C@H](Oc2ccc([N+](=O)[O-])cc2)O[C@H](CO)[C@@H](O)[C@@H]1O [pNPGlcNAc],Km,340 µM
